Source: patent US7319090B2, “Methods of treating cerebral ischemia” (University of North Carolina at Chapel Hill, priority 2002, dated 2008)
Where a SMILES comes first, the peptide text is derived from it. Where no end group is shown, it is not given here. [ ]: non-standard residue; d: D form. Ala(indol-4-yl) = N[C@@H](Cc1cccc2[nH]ccc12)C(=O)O; NMeR = CN[C@@H](CCCNC(=N)N)C(=O)O; Tle = CC(C)(C)[C@H](N)C(=O)O; dOrn = NCCC[C@@H](N)C(=O)O; neo‑Trp = not defined here

Tests used:
Type in all cases: in vivo, rat
Sprague-Dawley rats [1] = assay: Behavioral thermoregulation in a temperature gradient (selected Ta, core temperature, motor activity) after NT77
Protocol: Male rats of the Sprague-Dawley strain at 60 days of age were obtained from Charles River Laboratories (Raleigh, N.C.). The animals were housed individually in acrylic cages lined with wood shavings at an ambient temperature (Ta) of 22° C., relative humidity of 50%, and a 12 hour light:12 hour dark photoperiod (lights were turned on at 6 a.m. and turned off at 6 p.m.). Core temperature and motor activity were monitored in undisturbed rats using radio telemetry (Data Sciences International, St. Paul, Minn.). Details of the telemetry system are described in Gordon, C. J., 24-hour control of body temperature in the rat: I. Integration of behavioral and autonomic effectors, Am. J. Physiol. 267, […]-[…], 1994. Briefly, rats were anesthetized with sodium pentobarbital (50 mg/kg; intraperitoneally) and an incision was made for the implantation of the transmitter (TAIOTA-F40) into the abdominal cavity. The abdominal muscle was sutured and the skin was closed with wound clips. […] The behavioral thermoregulatory response to NT77 was assessed by measuring selected ambient temperature (Selected Ta) of the unrestrained rats when housed in a temperature gradient (Gordon, C. J., 24-hour control of body temperature in the rat: I. Integration of behavioral and autonomic effectors, Am. J. Physiol. 267, […]-[…], 1994). Rats were placed in a temperature gradient and allowed to behaviorally select from a range of ambient temperatures (Ta) while core temperature (Tc) was monitored by radiotelemetry. Selected Ta, core temperature (Tc), and motor activity were monitored at 1 minute intervals. […] Selected Ta was measured by photocells positioned at 10 cm intervals that detected the position of the rat in the gradient and automatically compared the position to the air temperature measured by thermocouples placed immediately outside the wire-mesh cage. Motor activity was calculated by measuring the change in position of the rat in the gradient at 1 minute intervals. […] The behavioral and core temperature data were recorded at 1 minute intervals throughout the experiment. […]

Sprague-Dawley rats [2] = assay: Metabolism and heat loss in a direct calorimeter after NT77; settings: 5.0 mg/kg i.p.; data not shown
Protocol: Oxygen consumption and dry heat loss were measured in naive rats implanted with radiotransmitters and housed in a direct calorimeter. The internal dimensions of the calorimeter were 30.5 cm×30.5 cm×30.5 cm. The calorimeter was used to measure the rate of dry heat loss (i.e., thermal conductance) from the rats using thermoelectric sensors in the calorimeter walls. The calorimeter was housed inside a temperature-controlled chamber maintained at 23.5° C. The inside of the calorimeter was dimly illuminated with LED lights (total power=0.2 Watts). […]
A mass flow controller was used to meter dry air at a constant flow rate (2.7 liters/minute; STP) into the calorimeter. […] Percent oxygen, dry heat loss, air flow rate, and calorimeter temperature were monitored at 1 minute intervals by a data acquisition system (Dianachart PC acquisitor). […] (W/C) was calculated by dividing the value of dry heat loss at 1 minute intervals by the difference between core and ambient temperature. […]
A naive rat was placed in the wire-mesh cage which was then placed inside the calorimeter at approximately 9 a.m. […] After 115 minutes, the percent oxygen of the inflowing air was measured for another 5 minutes for calibration purposes but the rat was not disturbed. […]

[3] = tested on: Sprague-Dawley rats resuscitated from asphyxial cardiac arrest
Text: Sixteen male Sprague-Dawley rats (Harlan; Madison, Wis.) weighing 300±50 grams were randomized to a control group (saline) or treatment group (NT69L) after resuscitation from asphyxial cardiac arrest. The outcome model of asphyxial cardiac arrest in rats was used to induce the cerebral insult in all rats (Katz et al., Outcome model of asphyxial cardiac arrest in rats, J. Cereb. Blood Flow Metab., 1995, 15:1032-1039). Under titrated inhaled isoflurane anesthesia, brain telemetric probes (Mini-Mitter; Sunriver, Oreg.) were implanted three days before the cerebral insult. […] On the day of the cerebral insult, rats were again anesthetized with inhaled isoflurane anesthesia, intubated, and mechanically ventilated. A tail artery was cannulated for continuous blood pressure monitoring and blood gas analysis, while the jugular vein was cannulated for intravenous drug administration. Intravenous vecuronium (2 mg/kg intravenous) and cessation of mechanical ventilation were used to induce apneic asphyxia. Asphyxia led to cardiac arrest (i.e., mean arterial pressure (MAP)<10 mm Hg and a pulse pressure of 0 mm Hg) within approximately 3 minutes; the cardiac arrest was maintained until resuscitation. Eight minutes after asphyxia, the rats were resuscitated with mechanical ventilation (100% oxygen), 0.005 mg/kg intravenous epinephrine, and chest compressions until a mean arterial pressure of 60 mm Hg was produced and maintained by a spontaneously beating heart for more than 10 seconds. Immediately after restoration of spontaneous circulation (ROSC), the rats were placed in an incubator that maintained an ambient temperature of 31.6° C. […] Ten minutes after ROSC, NT69L (0.5 mg/kg) […] or saline 3 mL/kg was administered intravenously. The ventilator was adjusted to normalize temperature-corrected arterial carbon dioxide before the insult and for two hours after ROSC. Two hours after ROSC, spontaneously breathing rats were extubated and maintained in the incubator for 24 hours. Rats were handled daily after the experiment and had free access to food and water.
(§1) Physiological variables (arterial blood gas, glucose, and MAP) between groups were compared by a one-way analysis of variance (ANOVA). All values were reported as means±standard deviation unless otherwise stated. A one-way analysis of variance (ANOVA) was used to determine the between-group differences in latency time for finding the platform during the MWM on day 14. When an overall significant difference was found, a Tukey post-hoc analysis was used to determine specific between-group differences. Performances on the MWM (learning curve) between days 10 and 14 were compared between groups by a repeated measure ANOVA. Neurological deficit scores between groups were assessed by Kruskal-Wallis analysis. For all analyses, alpha was set at a p<0.05 level of significance.

[4] = tested on: Sprague-Dawley rats resuscitated from asphyxial cardiac arrest; assay: Morris Water Maze on days 10-14 after ROSC (NT69L)
Protocol: On days 10-14 after ROSC, the rats were accessed for performance in a Morris Water Maze (MWM). Evaluation was begun on day 10 to ensure that there was complete recovery from anesthesia and the surgical procedures based on prior pilot studies (data not shown). A six foot diameter round pool was filled with water (26° C.) to a depth of 20 cm, 1 cm above an 11-cm diameter clear glass escape platform. The escape platform was invisible to a swimming rat and was placed in the northeast quadrant of the pool. The pool had large visible and distinct geometric shapes placed in a north, south, east, and west distribution on the side of the pool wall so that a swimming rat could easily visualize the orientation markers. The pool was situated in a room with black walls and ceiling to minimize external distractions for the rats. Rats were initially placed in the pool (without the escape platform) for 2 minutes to become acclimatized to the new swimming environment. The rats were then placed on the escape platform for 30 seconds to allow for self orientation in the pool. Next, the rats were randomly placed in each of the four geographic outer regions of the pool and their travel path, swim speed, and time required to locate the hidden platform (latency time) were recorded. Rats performed four swim trials on each day with a maximum swim time of 2 minutes, at which time the trial was terminated if a rat was unable to locate the platform. A 3-minute rest period was provided between trials. In addition to the rats that sustained cardiac arrest (n=16), nine sham rats were surgically instrumented and allowed to recover for ten days before being assessed for performance in the MWM.
as §1

[5] = tested on: Sprague-Dawley rats resuscitated from asphyxial cardiac arrest; assay: Neurological deficit score 14 days after ROSC (NT69L)
Protocol: A final neurological deficit score (NDS) was performed 14 days after ROSC by an evaluator blinded to the insult and therapeutic intervention. Rats were tested for coordination (balance beam walk placing test, depth perception, righting reflex) and for motor and sensory function as described in Katz et al., Outcome model of asphyxial cardiac arrest in rats, J. Cereb. Blood Flow Metab., 1995, 15:1032-1039. The NDS includes a range from 0 (indicating normal) to 100 (indicating brain dead).
as §1

[6] = tested on: free-roaming, unanesthetized rats; assay: Pilot: brain temperature of free-roaming unanesthetized rats without cardiac arrest given NT69L; settings: no cardiac arrest, room temperature 23° C., i.v.
Protocol: In separate pilot experiments, four rats were instrumented for placement of temperature probes and intravenous catheters as described above. Three days after recovery from anesthesia, NT69L was administered intravenously to two free-roaming, unanesthetized rats at room temperature (23° C.). In the same environment and at the same time, two rats were given a similar volume of saline for comparison.

[7] = NT69L 0.5 mg/kg i.v., ambient 31.6° C.
[8] = intravenously after resuscitation from cardiac arrest
[9] = one NT69L group rat, day 14 after resuscitation

Molecule | effect on motor activity (Sprague-Dawley rats [1]; 5.0 mg/kg i.p., temperature gradient) | core temperatures and selected Ta's during the night after treatment (Sprague-Dawley rats [1]; 5.0 mg/kg i.p., data not shown) | loss of initial body weight (Sprague-Dawley rats [1]; day after treatment, saline 1.6%) | effect on motor activity in the calorimeter (Sprague-Dawley rats [2]) | duration of mild hypothermia (mean) ([3]; NT69L 0.5 mg/kg i.v.) | duration of mild hypothermia (median) ([3]; NT69L 0.5 mg/kg i.v.) | duration of mild hypothermia (range) ([3]; NT69L 0.5 mg/kg i.v.) | time until brain temperature dropped below 35° C. after administration (mean) [3, 7] | time until brain temperature dropped below 35° C. after administration (range) [3, 7] | rats with ROSC that survived 14 days ([3]; each group, same as control) | hypothermia produced (conclusion) [3, 8] | hypotension produced ([3]; rat, in vivo) | latency time in Morris Water Maze ([4]; fourteen days after ROSC, control 45±26, sham 10±3) | distance traveled, sample path of one rat (FIG. 1) [4, 9] | latency time, sample path of one rat (FIG. 1) [4, 9] | rates of change of latency time over days 10-14 versus control ([4]; p=0.15 repeated-measures ANOVA) | swimming speed during MWM testing ([4]; sham 27±2, control 25±1) | neurological deficit score (NDS) ([5]; 14 days after ROSC, 0 normal to 100 brain dead, control 30±10) | neurological outcome (conclusion) [5, 8] | brain temperature versus saline rats [6]
CC(C)C[C@H](NC(=O)[C@@H](NC(=O)[C@H](Cc1cccc2[nH]ccc12)NC(=O)[C@@H]1CCCN1C(=O)[C@@H](CCCN)NC(=O)[C@@H](N)CCCNC(=N)N)C(C)(C)C)C(=O)O [NT77] (H-R[dOrn]P[Ala(indol-4-yl)][Tle]L-OH) | no effect | normal | 2.4% | no discernable effect | – | – | – | – | – | – | – | – | – | – | – | – | – | – | – | –
NT69L: neurotensin analog, SEQ ID NO: 16, positions 8-13: N-methyl-Arg, L-Lys, L-Pro, L-neo-Trp, tert-Leu, L-Leu ([NMeR]KP[neo‑Trp][Tle]L; reading uncertain) | – | – | – | – | 300 ± 100 min | 367 min | 20 to 400 min | 13+3 minutes | 8 to 15 min | Seven out of eight | rapid and prolonged mild hypothermia | mild and transient | 22 ± 8 s | 225 cm | 9 s | no difference | 26 ± 1 cm/s | 3±3 | improved neurological outcome | drop in brain temperature
